According to article PMC4826333 (Journal of medicinal chemistry, 2015):

Key:
[1] = test system: PC-3, DU-145, LNCaP, and HeLa; experiment: Trypan blue cytotoxicity, panel of cancer cell lines; conditions: four cancer cell lines; for cytotoxicity as compared with curcumin: 1 and 10 μM
PC-3, DU145, LNCaP, HeLa = experiment: Relative potency versus curcumin over the cancer cell lines, WST-1 and TB; type: cell-based, human; conditions: in the tested cancer cell lines

Row | Compound | activity at 10 μM concentration [1] | cytotoxicity as compared with curcumin [1] | times more potent than curcumin (PC-3, DU145, LNCaP, HeLa)
1 | Cn1cc(/C=C/C(=O)/C=C/c2cnn(C)c2)cn1 [Compound 17, (1E,4E)-1,5-Bis(1-methyl-1H-pyrazol-4-yl)penta-1,4-dien-3-one] | almost inactive | did not show increased or similar cytotoxicity | –
2 | Cn1cncc1/C=C/C(=O)/C=C/c1cncn1C [Compound 16, (1E,4E)-1,5-Bis(1-methyl-1H-imidazol-5-yl)penta-1,4-dien-3-one] | – | as effective (or slightly more effective) as curcumin | –
3 | O=C(/C=C/c1ccnc2ccccc12)/C=C/c1ccnc2ccccc12 [Compound 32, (1E,4E)-1,5-Di(quinolin-4-yl)penta-1,4-dien-3-one] | – | as effective (or slightly more effective) as curcumin | –
4 | O=C(/C=C/c1cc2ccccc2nc1Cl)/C=C/c1cc2ccccc2nc1Cl [Compound 33, (1E,4E)-1,5-Bis(2-chloroquinolin-3-yl)penta-1,4-dien-3-one] | almost inactive | did not show increased or similar cytotoxicity | –
5 | O=C(/C=C/c1nc2ccccc2s1)/C=C/c1nc2ccccc2s1 [Compound 35, (1E,4E)-1,5-Bis(benzo[d]thiazol-2-yl)penta-1,4-dien-3-one] | – | as effective (or slightly more effective) as curcumin | –
6 | Cc1nc(/C=C/C(=O)/C=C/c2nc(C)c(-c3ccncc3)s2)sc1-c1ccncc1 [Compound 34, (1E,4E)-1,5-Bis(4-methyl-5-(pyridin-4-yl)thiazol-2-yl)penta-1,4-dien-3-one] | almost inactive | did not show increased or similar cytotoxicity | –
7 | O=C(/C=C/c1ccc2ccccc2n1)/C=C/c1ccc2ccccc2n1 [Compound 31, (1E,4E)-1,5-Di(quinolin-2-yl)penta-1,4-dien-3-one] | – | as effective (or slightly more effective) as curcumin | –
8 | O=C(/C=C/c1cocn1)/C=C/c1cocn1 [Compound 20, (1E,4E)-1,5-Bis(oxazol-4-yl)penta-1,4-dien-3-one] | – | as effective (or slightly more effective) as curcumin | –
9 | O=C(/C=C/c1cccnc1)/C=C/c1cccnc1 [Compound 27, (1E,4E)-1,5-Di(pyridin-3-yl)penta-1,4-dien-3-one] | – | as effective (or slightly more effective) as curcumin | –
10 | Cc1nc(C(F)(F)F)c(/C=C/C(=O)/C=C/c2sc(C)nc2C(F)(F)F)s1 [Compound 24, (1E,4E)-1,5-Bis(2-methyl-4-(trifluoromethyl)thiazol-5-yl)-penta-1,4-dien-3-one] | – | – | 11–36 times
11 | Cn1nc(C(F)(F)F)c(/C=C/C(=O)/C=C/c2c(C(F)(F)F)nn(C)c2Cl)c1Cl [Compound 18, (1E,4E)-1,5-Bis(5-chloro-1-methyl-3-(trifluoromethyl)-1H-pyrazol-4-yl)penta-1,4-dien-3-one] | – | as effective (or slightly more effective) as curcumin | –
